Earlier results in patent publication US9492406B2, “Pharmaceutical composition” (IPCA Laboratories Limited, priority 2012, dated 2016).
Where two headings read alike, the source gives them in different places. Values belong to the molecule of their own block, whether it stands above or below them.

Key:
[1] = theophylline products of US2008248117
[2] = not given; remark: listed apart in the source

- Release after 15 min in % (carbamazepine products of US2008248117, 15 min): 22%
- Release after 30 min in % (carbamazepine products of US2008248117, 30 min): 53%
Structure (SMILES): NC(=O)N1c2ccccc2C=Cc2ccccc21 [Carbamazepine crystals, Carbamazepine]

- Resistance to crushing [1]: 140
- Release after 15 min in % (theophylline products of US2008248117, 15 min): 34%
- Release after 30 min in % (theophylline products of US2008248117, 30 min): 78%
Structure (SMILES): Cn1c(=O)c2[nH]cnc2n(C)c1=O [Theophylline crystals, Theophylline]

- bioavailability ([2]; microfluidized microparticles supplied as suspension, with fat diet): 46-48%
- bioavailability ([2]; oral non-sized suspension): about 23%
- bioavailability ([2]; oral non-sized suspension, under fat fed condition): 46-48%
- bioavailability ([2]; tablet formulations): ~12%
Structure (SMILES): O=C1C(O)=C([C@H]2CC[C@H](c3ccc(Cl)cc3)CC2)C(=O)c2ccccc21 [Atovaquone, trans-2-[4-(4-chlorophenyl)cyclohexyl]-3-hydroxy-1,4-naphthoquinone]
